Measurements taken from patent publication US11446299B2, “Carbazole EHop-016 derivatives as anticancer and anti-migratory agents” (UNIVERSITY OF PUERTO RICO, priority 2017, dated 2022).
Read-outs that look alike come from different tables or passages of the source.

Legend:
[1] = system: MDA-MB-231 breast cancer cells; experiment: Wound healing assay (scratch method), cell migration; type: cell-based, human; details: for inhibition of migration in words: at a concentration of 0.2×IC50; for inhibition at 10 µM: read-out: anti-migratory activity (inhibition of migration)
Protocol: The experimental data of anti-migratory activities for compounds 3a-d and 4a-f were obtained using MDA-MB-231 breast cancer cells. For the migration assay, a wound-healing assay (scratch-wound assay) was utilized in the presence of vehicle (0.02% DMSO) or compounds at […].
Prior to assays, cells were grown until 80-90% confluence was observed. A 75 cm2 flask was used for 2.6×10^5 cells/mL in 10 mL and for a 25 cm2 flask 1.44×10^5 cells/mL in 5 mL. The cells were washed with PBS to remove all traces of FBS. 2 mL was added for a 25 cm2 flasks or 4 mL for a 75 cm2 flasks trypsin, and incubated 5-10 min at 37° C. At the end of the incubation time, cells were re-suspended and counted with hemocytometer using 1:2 dilutions with Trypan blue. Subsequently, cell viability was calculated. In a 12 multiwell plate, the plastic pattern was used to draw a fine space with a fine marker on the bottom of the plate. Cells were seeded at 1.5-2.2×10^5 cells/mL in 1 mL and incubated for 24 h. Cells were then rinsed with PBS and incubated in starving media (0.5% FBS) overnight. All controls and drugs were tested in triplicate. The negative control for each drug was prepared according to the drug's DMSO concentration.
Drugs were diluted and the final concentration at each well […]. The wound was made using a sterile pipette tip of […]. Cells were then rinsed very gently with media without FBS and media with negative controls was added. After a 24 h incubation, the gap distance was evaluated using the software Lumera Infinity Analyze 6.4.0. Pictures were taken at 0, 8, 12 and 24 h using a 10× objective. The percentage of migration was calculated using the following formula: 100−[(X0/X0)]*100 for time 0 h measurements 100−[(X24/X0)]*100 for time 24 h measurements
The experimental data of anti-migratory activities for compounds 3a-d and 4a-f were obtained using MDA-MB-231 breast cancer cells, and results are summarized in Table 1. For the migration assay, we used a wound-healing assay (scratch-wound assay)^22 in the presence of vehicle (0.02% DMSO) or compounds at 10 μM (FIG. 6). […] However, compounds 3a, 3c, and 4a-f inhibited migration in the range of 1-9%.
(§1) An additional example of a compounds with modification in building block C was synthesized via a different procedure as represented in Scheme 2B (see FIG. 11B). The compounds that were synthesized were tested for their biological activity by determination of their cytotoxicity in MDA-MB-231 breast cancer cell lines as shown in Table 5. The cytotoxicity's are expressed as IC50, which indicates the concentration at which 50% of the cell growth is inhibited. Furthermore, the inhibition of cell migration was tested at a concentration of 0.2×IC50, or, when the IC50 was >50 μM at a concentration of 10 μM. For comparison, Table 5 also includes the Lipinski and drug-likeness parameters as calculated via the MolSoft platform.
Migration assays were performed via the Scratch Method as described previously.

[2] = system: MDA-MB-231 breast cancer cell lines; experiment: Cytotoxicity (IC50) of EHop-016 derivatives modified in building block C; type: cell-based; details: Homo sapiens, concentration at which 50% of the cell growth is inhibited
Protocol: as §1

MCF-7 cancer cells = experiment: Sulforhodamine B (SRB) growth inhibition assay; type: cell-based; details: Homo sapiens, MCF7, 24 h treatment, mean of triplicate, SD <10%
Protocol: (§2) Various compounds were tested to evaluate the dose response curve for effect on MCF-7 cancer cells and MDA-MB-231 cancer cells. MCF-7 and MDA-MB-231 cells were cultured in 10% Minimum Essential Medium Eagle (MEME) supplemented with Earle's Balanced Salt Solution (EBSS), Non-essential Amino acids (NEAA), Sodium pyruvate, Pen/Strep, L-glutamine and Fetal Bovine Serum (FBS) at 37° C. in 5% CO2.
(§3) Sulforhodamine B (SRB) Assay: A stock solution of compounds was prepared at 50 mM in 100% DMSO. For cells preparation, a flask of 75 cm^2 or 25 cm^2 were used for 2.6×10^5 cells or 1.44×10^5 cells respectively with an 80-90% of confluence. Cells were washed with PBS and trypsinized. The concentration of cells was determined using a 1:2 dilutions with Trypan Blue and a hemocytometer. After cell count, the concentration was adjusted to have a 1.9×10^4 cells/well. Approximately […] of cells suspension, compounds, control positive and control negative were added in triplicates to a 96 well plate. Positive controls used were ellipticine, doxorubicin, and/or vincristine, and the negative control was DMSO 0.1%. All compounds at 50, 25, 12.5, 6.3, and 1.6 μM were incubated with cells at 37° C. for 24 hrs. For fixation, cold TCA 50% was used and incubated at 4° C. for 1 hr. Wells were washed and dried prior to tincture with 100 μL of SRB 0.4%. To remove excess of SRB, acetic acid was used. For analysis, TRIS-BASE Solution (pH=10.5) was used and shacked prior to reading using an ELISA reader at 510 nm and the software SoftMax Pro 4.8.
(§4) For each compound, 50% growth inhibition (GI50) was calculated from Sigmoidal dose-response curves (variable-slope) that were generated with data obtained from experiments carried out in triplicates (GI50 values were generated with GraphPad Prism V. 6.02, GraphPad Software, Inc.). The results are presented in FIGS. 4A-4B (MCF-7 cancer cells) and FIGS. 5A-5B (MDA-MB-231 cancer cells).

[3] = system: SH-SY5Y neuroblastoma cells; experiment: Growth inhibition, log dose-response; type: cell-based; details: Homo sapiens
Description: FIG. 14 (A-B). Log dose-response curve for compound 8 in MCF-7 (FIG. 14A) and SH-SY5Y neuroblastoma (FIG. 14B) cells.

MDA-MB-231 cancer cells = experiment: Sulforhodamine B (SRB) growth inhibition assay; type: cell-based, human; details: Homo sapiens, MDA-MB-231; SRB assay, 24 h treatment, mean of triplicate, SD <10%
Protocol: as §2, §3, §4

Rac1-Vav2 interaction = Rac1-Vav2 interaction (Homo sapiens, UniProt P63000); details: cited from earlier work
PAK1 = details: at 2 μM; cited from earlier work
Rac = Rac (Homo sapiens, UniProt P63000); details: cited from earlier work
Cdc42 = Cdc42 (Homo sapiens, UniProt P60953); details: cited from earlier work
tumor = details: at ≥25 mg/kg Body Weight, mouse model; cited from earlier work
[4] = mouse model; cited from earlier work

Cdc42, sequence (P60953 whole entry, species assumed): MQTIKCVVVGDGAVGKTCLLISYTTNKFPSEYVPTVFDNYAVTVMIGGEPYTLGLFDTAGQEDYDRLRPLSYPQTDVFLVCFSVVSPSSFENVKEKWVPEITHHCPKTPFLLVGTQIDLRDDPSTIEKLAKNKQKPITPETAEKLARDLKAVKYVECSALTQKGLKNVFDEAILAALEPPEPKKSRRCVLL

Work on `CCn1c2ccccc2c2cc(Nc3ccnc(NCCOC)n3)ccc21` [Compound 38, N^4-(9-ethyl-9H-carbazol-3-yl)-N^2-(2-methoxyethyl)pyrimidine-2,4-diamine] yielded an activity at 2.8 µM ([1]; Homo sapiens, MDA-MB-231, 24 h, at 2.8 μM) of 96.7% and an IC50 [2] greater than 50 µM.
`CCn1c2ccccc2c2cc(Nc3ccnc(NCCO)n3)ccc21` [Compound 36, 2-((4-((9-ethyl-9H-carbazol-3-yl)amino)pyrimidin-2-yl)amino) ethanol] showed an activity at 2.92 µM ([1]; Homo sapiens, MDA-MB-231, 24 h, at 2.92 μM (0.2×IC50)) of 94.8% and an IC50 [2] of 14.6 µM.
With `CCn1c2ccccc2c2cc(Nc3ccnc(NCCC4CCCN4C)n3)ccc21` (centres unmarked) [Compound 35, N^4-(9-ethyl-9H-carbazol-3-yl)-N^2-(2-(1-methylpyrrolidin-2-yl)ethyl)pyrimidine-2,4-diamine] the activity at 3.8 µM ([1]; Homo sapiens, MDA-MB-231, 24 h, at 3.8 μM (0.2×IC50)) was 89.1%, the “inhibition of migration in words” value [1] was “inhibition of migration” and the IC50 [2] was 19.1 µM.
Work on `CCn1c2ccccc2c2cc(Nc3ccnc(NCc4ccc(OC)cc4OC)n3)ccc21` [Compound 39, N^2-(2,4-dimethoxybenzyl)-N^4-(9-ethyl-9H-carbazol-3-yl) pyrimidine-2,4-diamine] yielded an activity at 0.92 µM ([1]; Homo sapiens, MDA-MB-231, 24 h, at 0.92 μM) of 103% and an IC50 [2] greater than 50 µM.
`CCn1c2ccccc2c2cc(Nc3cc(C)nc(NCCCN4CCOCC4)n3)ccc21` [Compound 8, N^4-(9-Ethyl-9H-carbazol-3-yl)-6-methyl-N^2-(3-morpholin-4-yl-propyl)-pyrimidine-2,4-diamine] showed a GI50 (MCF-7 cancer cells) of 9.5 µM and a GI50 [3] of 6 µM.
With `CCn1c2ccccc2c2cc(Nc3ccnc(Nc4c(OC)cc(OC)cc4OC)n3)ccc21` [Compound 40, N^4-(9-ethyl-9H-carbazol-3-yl)-N^2-(2,4,6-trimethoxyphenyl) pyrimidine-2,4-diamine] the activity at 1.54 µM ([1]; Homo sapiens, MDA-MB-231, 24 h, at 1.54 μM (0.2×IC50)) was 80.2%, the “inhibition of migration in words” value [1] was “inhibition of migration” and the IC50 [2] was 7.7 µM.
In the case of `CCn1c2ccccc2c2cc(Nc3ccnc(NCCCN4CCOCC4)n3)ccc21` (racemic) [EHop-016], the GI50 (MCF-7 cancer cells) is reported as 14 µM, the GI50 (MDA-MB-231 cancer cells) is reported as 15 µM and the activity at 1 µM ([1]; Homo sapiens, MDA-MB-231, 24 h) is reported as 95.4%. For the same compound, the activity at 5 µM ([1]; Homo sapiens, MDA-MB-231, 24 h, at 5 μM) was 63.4%, the inhibition at 1 µM ([1]; Homo sapiens, MDA-MB-231, read-out: inhibition of migration, at 1.0 μM, scratch method) was 5% and the inhibition at 5 µM ([1]; Homo sapiens, MDA-MB-231, read-out: inhibition of migration, at 5.0 μM, scratch method) was 37%. The inhibition at 10 µM ([1]; Homo sapiens, MDA-MB-231) was 33%, the inhibition at 10 µM ([1]; Homo sapiens, at 10 μM, 24 h, MDA-MB-231) was 33% and the activity at 10 µM ([1]; Homo sapiens, percent relative migration at 10 μM after 24 h, relative to control, MDA-MB-231) was 67 ± 7.55%. It also gave an anti-migratory activity ([1]; at 5 pM as printed, MDA-MB-231) of 17%, an anti-migratory activity ([1]; at 5 μM, MDA-MB-231) of 17% and an IC50 [2] of 15.7 µM. The IC50 (Rac1-Vav2 interaction) was 1 µM, the inhibition of PAK1 (PAK1) was 60% and the “activity relative to previously available Rac inhibitors” value (Rac) was 10-100 times. For the same compound, the IC50 (Rac; metastatic breast cancer cells) was 1 µM, the “concentrations that inhibit Cdc42 activity” value (Cdc42) was no less than 10 µM and the “tumor growth, metastasis and angiogenesis in words” value (tumor) was “significantly reduced tumor growth, metastasis, and angiogenesis”. For the same compound, the clearance in words [4] was “cleared rapidly from the circulation”.
Work on `CCn1c2ccccc2c2cc(Nc3ccnc(NCCOCCO)n3)ccc21` [Compound 37, 2-(2-((4-((9-ethyl-9H-carbazol-3-yl)amino)pyrimidin-2-yl)amino)ethoxy)ethanol] yielded an activity at 3.07 µM ([1]; Homo sapiens, MDA-MB-231, 24 h, at 3.07 μM) of 100% and an IC50 [2] greater than 50 µM.
Work on `CCN(CC)CCCC(C)Nc1nccc(Nc2ccc3c(c2)c2ccccc2n3CC)n1` (centres unmarked) [Compound 32, N^2-(5-(diethylamino)pentan-2-yl)-N^4-(9-ethyl-9H-carbazol-3-yl)pyrimidine-2,4-diamine] yielded an activity at 1.8 µM ([1]; Homo sapiens, MDA-MB-231, 24 h, at 1.8 μM (0.2×IC50)) of 99.9% and an IC50 [2] of 9 µM.
Compound `CCn1c2ccccc2c2cc(Nc3ccnc(NCC4CCCCN4)n3)ccc21` (centres unmarked) [Compound 34, N^4-(9-ethyl-9H-carbazol-3-yl)-N^2-(piperidin-2-ylmethyl)pyrimidine-2,4-diamine] has an activity at 0.39 µM ([1]; Homo sapiens, MDA-MB-231, 24 h, at 0.39 μM (0.2×IC50)) of 100% and an IC50 [2] of 1.97 µM.
`CCn1c2ccccc2c2cc(Nc3ccnc(NCCCn4ccnc4)n3)ccc21` [Compound 33, N^2-(3-(1H-imidazol-1-yl)propyl)-N^4-(9-ethyl-9H-carbazol-3-yl)pyrimidine-2,4-diamine] showed an activity at 1.51 µM ([1]; Homo sapiens, MDA-MB-231, 24 h, at 1.51 μM (0.2×IC50)) of 100% and an IC50 [2] of 7.57 µM.
With `CCn1c2ccccc2c2cc(Nc3ccnc(NC(=O)Nc4cc(Cl)c(OC)cc4OC)n3)ccc21` [Compound 41, 1-(5-chloro-2,4-dimethoxyphenyl)-3-(4-((9-ethyl-9H-carbazol-3-yl)amino)pyrimidin-2-yl)urea] the activity at 1 µM ([1]; Homo sapiens, MDA-MB-231, 24 h) was 77.3%, the “inhibition of migration in words” value [1] was “inhibition of migration” and the IC50 [2] was 10.9 µM.
